Reference: patent US20110152379A1, “COMPOSITION FOR CONTROL OF AGING AND/OR EXTENSION OF LIFE, CONTAINING DAPSONE AS ACTIVE INGREDIENT” (priority 2008, published 2011)
Values joined by “and” are separate entries in the source; they are usually repeats but may differ in a detail not shown here. Equal values may be shown once.

Assays:
[1] = system: PKCβ; experiment: PKC phosphorylation induced by PQ, Western blot; format: cell-based; conditions: human diploid fibroblast; 1 mM PQ; FIG. 28
Procedure: (§1) The isolated sample was transferred to a nitrocellulose and analyzed through Western Blot using MS601 (Total OXPHOS Complexes Detection Kit, MitoSciences, containing antibodies against SDH30 subunit of complex II (5 μg/ml), Core2 subunit of complex III (0.2 μg/ml), COXII subunit of complex IV (2 μg/ml), and subunit α of F1-ATPase of complex V (0.2 μg/ml)), PCKpan-p, PCKα/β-p, PKCδ-p (Phospho-PKC antibody Sampler Kit, Cell Signaling Technology), PKC α, PCKβ, PKCδ (Life Technologies), β-Actin (Sigma), and the like. The measurement was performed by using a horseradish peroxygenase-conjugated secondary antibodies (Zymed) and ECL (Pierce). The results were shown through visualizing by using Autoradiographic film (Image Reader, LAS-3000Fujifilm, Japan).

[2] = system: human diploid fibroblast; experiment: Survival rate of human diploid fibroblast treated with PQ (CCK-8); conditions: DDS pretreatment (0.1, 1, 5, 20 and 50 uM) 3 hours, then 1 mM PQ 48 hours; FIG. 23
Procedure: The above cell was cultured by adding Cell Counting Kit-8 for 48 hours and then the survival ability of cell was measured. In addition, DPI (5 uM) was pretreated for 30 minutes and NAC (2 mM) was pretreated for 3 hours, and then 1 mM of PQ was treated as a positive control.
The evaluation of survival rate of cell was performed by using Counting Kit (CCK-8) from Dojindo Laboratory Company (Japan). The human diploid fibroblast was cultured at 96-well plate for 24 hours before treating. […] The absorbance was measured at 450 nm.

[3] = system: cytosolic superoxide anion; experiment: Superoxide anion in cell (cytoplasm), DHE; format: cell-based; conditions: human diploid fibroblast; 1 mM PQ 30 minutes; FIG. 24A
Procedure: The cell was treated with 1 mM of PQ for 30 minutes, and then was cultured at 37° C. for 15 minutes after adding oxidant-sensitive fluorescent dyes (A) DHE (5 uM, cytosol specific) and (B) MitoSOX (5 uM, mitochondria specific), respectively. For identifying the change of fluorescence, the excitation and emission wavelength of DHE were measured at 515 and 590 nm and MitoSOX was measured at 520 and 580 nm by using a multiwell plate reader. The results were indicated by calculating the results of three experiments as a control rate (%). The statistical significant was expressed as *, # p<0.005; ** p<0.05.
The cell was twice washed with DPBS and Ethidium-DNA that fluoresces was immediately measured at excitation wavelength 515 nm and emission wavelength 590 nm by using Cary Eclipse fluorescence spectrophotometer (Varian, Calif., USA) machine.

[4] = system: NOX4; experiment: NOX4 mRNA level by RT-PCR in PQ-treated human diploid fibroblast; format: cell-based; conditions: 1 mM PQ for 5 minutes, FIG. 26
Procedure: The amount of NOX4 (HDF specific) mRNA, which is a source for generating a cytosolic superoxide anion, increased by PQ was measured. For FIG. 26B, it was quantitived as % rate as compared with a control (non-treated human diploid fibroblast).
RNA of the human diploid fibroblast was isolated by using Trizol Reagent (MRC Cincinnati, USA), and NOX4 and GAPDH were measured through RT-PCR by using Biometra T Gradient PCR (Biometra, Goettingen, Germany) machine. A specific NOX primer; 5′-[…]-3′ (Forward Primer) and 5′-[…]-3′ (Reverse Primer); Primer for GAPDH 5′-[…]-3′ (Forward Primer) and 5′-[…]-3′ (Reverse Primer) were used as primers. DNA that was manipulated by PCR was isolated through 1.2% agarose gel electrophoresis, stained with EtBr to be visualized and then taken a photography that can be shown through UV.

[5] = system: C. elegans; experiment: Lifespan of C. elegans fed on E. coli cultured with dapsone; format: in vivo, Caenorhabditis elegans; parameters: Mean lifespan (Mean ± SE): unit not given beside the values
Procedure: In order to identify the effect of dapsone on the extending of lifespan, the experiment was performed in the following order. At this time, since dapsone is not a water-soluble material, E. coli was cultured in the medium including dapsone and then was used as a feed for C. elegans. […] generation, and the experiment was performed as follows under the condition of 20° C. in order to provide the optimal growth environment: 1) A parent C. elegans of L4 stage was transferred to the medium containing dapsone and PABA, and the progeny of first generation was transferred to the new medium after four days to lay an egg for 4 to 5 hours. […] C. elegans, which […], was excluded from the statistical analysis. […] The significant difference of statistical average lifespan used Log-rank test.

[6] = system: mitochondria complex; experiment: Mitochondria complex protein amount by Western blot in PQ-treated human diploid fibroblast; format: cell-based; conditions: 1 mM PQ 24 hours, FIG. 29A
Procedure: (§2) The protein amount of mitochondria constituent complex was measured by using Western Blot using Complex I (20 kDa ND6 subunit), Complex II (30 kDa FeS, non-heme iron protein, SDHB), Complex III (47 kDa core protein 2), Complex IV (18 kDa subunit IV), Complex V (55 kDa subunit a ATP synthase), and the like. […] The membrane potential (Δψm) of mitochondria used DiOC6. […] Since then, the above fibroblast was treated with 40 nM of DiOC6 for 15 minutes. The results were measured by using Cary Eclipse Fluorescence Spectrophotometer (Varian, Calif., USA) and the excitation wavelength and emission wavelength were measured at 480 nm and 520 nm, respectively.
as §1, with “The measurement was performed by using a horseradish peroxygenase-conjugated secondary antibodies (Zymed) and ECL (Pierce).” left out

[7] = system: membrane potential of mitochondria; experiment: Membrane potential of mitochondria, DiOC6 assay; format: cell-based, human; conditions: pretreated with DDS (3 hours) or DPI (30 minutes), then 1 mM PQ 24 hours; FIG. 29B
Procedure: as §2
The change of membrane potential (Δψm) of mitochondria was measured by using a cationic dye, DiOC6 that is a specific fluorescent material for mitochondria. An aspect of the change was measured by using Fluorescence Spectrophotometer. The cell was cultured in 40 nM DiQC6 for 15 minutes and then the fluorescent material that was left was removed by using PBS. The analysis was performed by using Cary Eclipse fluorescence spectrophotometer (Varian, Calif., USA), and then the excitation wavelength was measured at 480 nm, and the emission wavelength was measured at 520 nm.

[8] = system: SOD1; experiment: Western blot of SOD1 amount in human diploid fibroblast; format: cell-based; conditions: various concentrations of DDS, FIG. 25B
Procedure: Trolox that is well known as a water-soluble vitamin E was used as a positive control.
as §1

Nc1ccc(S(=O)(=O)c2ccc(N)cc2)cc1 [DDS, 4,4′-diaminodiphenylsulfone]
PKCβ phosphorylation (activity) increased by PQ [1]: reduced | viability of human diploid fibroblast compared with the cell having the cytotoxic of PQ [2]: improved | superoxide anion of cytoplasm produced by PQ (DHE assay) [3]: reduced depending upon the concentration of DDS | NOX4 expression increased by PQ [4]: decreases | average lifespan and maximum lifespan compared with the control ([5]; DDS after L4-stage and during the whole life, FIG. 3A, B): significantly increased | Mean lifespan (Mean ± SE) ([5]; strain N2, OP50 + PABA + DDS (2 mM) after L4 stage, Figure 1B, four trials): 23.04 ± 0.7 and 34.26 ± 0.8 and 23.76 ± 0.6 and 18.87 ± 0.4 | Mean lifespan (Mean ± SE) ([5]; strain N2, OP50 + PABA + DDS (2 mM) in the whole life, Figure 1A, two trials): 23.07 ± 0.5 and 24.31 ± 0.6 | Mean lifespan (Mean ± SE) ([5]; strain N2, OP50 + PABA + DDS, Figure 3F, two trials): 23.72 ± 0.7 and 19.74 ± 0.6 | Mean lifespan (Mean ± SE) ([5]; strain N2, feeding OP50 + 0.5 mM DDS, Figure S7): 22.03 ± 0.6 | Mean lifespan (Mean ± SE) ([5]; strain N2, feeding OP50 + 1 mM DDS, Figure S7): 22.20 ± 0.6 | Mean lifespan (Mean ± SE) ([5]; strain N2, feeding folP + DDS (bacteria lacking folP), Figure S2, three trials): 16.90 ± 0.3 and 17.43 ± 0.4 and 17.87 ± 0.4 | Mean lifespan (Mean ± SE) ([5]; strain daf-16(cf1038), OP50 + PABA + DDS (2 mM), Figure 2A, two trials): 15.69 ± 0.5 and 17.40 ± 0.3 | Mean lifespan (Mean ± SE) ([5]; strain pyk-1(ok1754), OP50 + PABA + DDS, Figure 3F, two trials): 21.92 ± 0.8 and 23.37 ± 0.6 | amount of mitochondria complex reduced by PQ [6]: recover | decrease of membrane potential induced by PQ [7]: meaningfully maintained | amount of SOD1 [8]: decreases
